Test results: patent US8524685B1, “Anti-angiogenic therapeutics efficacy enhanced by nanoformulation” (University of Puerto Rico, priority 2010, dated 2013)

Columns and labels:
[1] = system: capillary endothelial cells; details: in vitro, capillary endothelial cells plated on fibronectin-coated dishes; cited from earlier work
[2] = system: capillary endothelial cells; assay: MTT assay, capillary endothelial cell viability; assay type: cell-based, bovine; details: 1 μg/ml, 3 h at 37° C., FIG. 1
Procedure: (§1) The capillary endothelial cells were from the laboratory stock of a non-transformed endothelial cell line from bovine adrenal medulla and maintained as previously described. Synchronized cultures (33) were treated with Tunicamycin nanoparticles (1 μg/ml) for 1 h in EMEM containing 2% fetal bovine serum (heat inactivated).
Synchronized capillary endothelial cells were incubated with Tunicamycin (1 μg/ml) alone or with 1 μg/ml of Tunicamycin nanoparticles for 3 h at 37° C. in a CO2 incubator (5% CO2 and 95% air) in 96-well microtiter plates. At the end the plates were processed for the MTT Assay. The results shown in FIG. 1 indicate that the cell viability was reduced to almost 50% (p<0.001) when treated with Tunicamycin conjugated to 20 nm or 50 nm gold particles.

cyclin D1 = assay: Western blot of cyclin D1 expression in capillary endothelial cells; assay type: cell-based, bovine; details: 1 μg/ml, FIG. 2
Procedure: as §1
(§2) Performed as before with 7.5% gel concentration.
(§3) To evaluate the biochemical pathway the Tunicamycin nanoparticles are likely to interfere, their effect on the cell cycle progression has been analyzed. The cell cycle antigens have been analyzed focusing primarily on the D-type cycline and their partners because Tunicamycin causes cell cycle arrest in G1. […] Expression of cyclin D1 and its catalytic partner, i.e., CDK4 was analyzed by western blotting. […] There was a little difference with the CDK4 expression. It was higher in cells treated with 20 nm gold particles […], but they both were much reduced compared to the untreated control or cells treated with native Tunicamycin as shown in FIG. 2. p53 is a gate keeper for the cell cycle. Upon phosphorylation p53 migrates to the nucleus and activates gene transcription.

CDK4 = assay: Western blot of CDK4 expression in capillary endothelial cells; assay type: cell-based, bovine; details: 1 μg/ml, FIG. 2, for the conjugates also compared to native Tunicamycin
Procedure: as §1, §2, §3

p53p^ser392 = assay: Western blot of p53 phosphorylated in serine392; assay type: cell-based, bovine; details: FIG. 3
Procedure: as §1, §2, §3

IRE-1 = assay: Unfolded protein response, western blot of IRE-1; assay type: cell-based, bovine; details: FIG. 5
Procedure: as §1, §2
(§4) It has been observed recently that Tunicamycin inhibits angiogenesis in vitro and in vivo as well as during the breast tumor progression by ER stress-mediated induction of unfolded protein response. In addition, it has also been shown that Tunicamycin gold nanoparticles inhibit capillary endothelial cell cycle progression much more effectively than native Tunicamycin. It was also evaluated if Tunicamycin gold nanoparticles would also activate the pathway that induces the unfolded protein response. The results shown in FIG. 5 indicate that Tunicamycin gold nanoparticles affect both transcription and translation.

PERK = assay: Unfolded protein response, western blot of PERK; assay type: cell-based, bovine; details: FIG. 5
Procedure: as §1, §2, §4

phosphoPERK = assay: Unfolded protein response, western blot of phosphoPERK; assay type: cell-based, bovine; details: FIG. 5
Procedure: as §1, §2, §4

GRP-78/Bip = details: shown earlier; cited from earlier work
angiogenesis = details: in vitro/in vivo; cited from earlier work
breast tumor = details: athymic nude mice; cited from earlier work

| Molecule | formation of capillary tubes [1] | effect on capillary endothelial cell viability compared to the control [2] | expression of cyclin D1 compared to the untreated control (cyclin D1) | expression of CDK4 compared to the untreated control (CDK4) | expression of p53 phosphorylated in serine392 (p53p^ser392) (p53p^ser392) | IRE-1 (transcriptional attenuator) activation (IRE-1) | PERK activation (PERK) | phosphoPERK (translational attenuator) activation (phosphoPERK) | time of treatment at which ER stress is induced (GRP-78/Bip) | angiogenesis (angiogenesis) | breast tumor growth (breast tumor) |
| --- | --- | --- | --- | --- | --- | --- | --- | --- | --- | --- | --- |
| OC[C@H]1NC[C@@H](O)[C@@H](O)[C@@H]1O [deoxymannojirimycin] | inhibited the formation of capillary tubes | – | – | – | – | – | – | – | – | – | – |
| Tunicamycin | – | does not show any effect | enhanced | enhanced | no effect | either had no effect or the effect is drastically reduced | either had no effect or the effect is drastically reduced | either had no effect or the effect is drastically reduced | 3 h | inhibit angiogenesis | reduce the breast tumor growth |
| O[C@H]1[C@H]2[C@H](O)CCCN2C[C@H]1O [swainsonine] | did not inhibit tube formation | – | – | – | – | – | – | – | – | – | – |
